Like-named read-outs stand apart in the source and are kept apart here.
Experiments:
[1] = target: T1, ALK2 (Homo sapiens, UniProt Q04771, Q207D); assay: Thermal shift kinase assay ALK2; assay type: binding; conditions: for ΔTmDiff.: ALK2 minus ALK5
T1 construct: His tag (TEV-cleavable) (N, cleaved yes); made in house; host or cells: Sf9 insect cells (baculovirus)
T1 sequence (Q04771 201-499 Q207D): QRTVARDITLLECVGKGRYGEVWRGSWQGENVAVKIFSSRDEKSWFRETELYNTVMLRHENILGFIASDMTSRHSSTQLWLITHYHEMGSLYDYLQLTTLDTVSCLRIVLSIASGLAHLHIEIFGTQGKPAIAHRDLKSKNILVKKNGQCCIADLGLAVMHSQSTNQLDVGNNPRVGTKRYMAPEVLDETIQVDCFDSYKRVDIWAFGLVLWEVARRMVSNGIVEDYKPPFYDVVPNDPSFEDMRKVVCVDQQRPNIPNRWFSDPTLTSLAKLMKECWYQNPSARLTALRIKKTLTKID
Protocol: Thermal melting experiments were performed using a Real Time PCR machine Mx3005p (Stratagene) with a protein concentration of 1-2 μM and 10 μM inhibitor as described by Niesen et al., Nat Protoc 2007, 2, 2212-21. Recombinant human kinases for DSF screening were prepared by SGC using the published methods of Sanvitale et al., PLoS One 2013, 8, e62721. The potency and selectivity of certain compounds of the invention based on thermal shift kinase and ligand induced transcriptional activity assays are shown in Table 2.

[2] = test system: BMP6; assay: Ligand induced transcriptional activity assay BMP6 (BRE-Luc); assay type: cell-based; conditions: cell-based signaling inhibition; read-out: BMP6 IC50
[3] = test system: HePG2 hepatocarcinoma cells; assay type: cell-based; conditions: human
Protocol: The cells were incubated for 2 h (37° C. and 5% CO2) and allowed to settle and attach. Compounds of interest or DMSO were diluted in DMEM and added at final compound concentrations of 1 μM, 10 μM, and 100 μM. Cells were incubated for 4 hours and 24 hours after which the media was discarded. Cells were lysed by adding 30 μL of passive lysis buffer (Promega) and shaken at RT for 15 min. Cell viability was determined by quantifying the ATP present in each well by adding 10 μL of CellTiter-Glo (Promega) per well and measuring the light output Spectramax L luminometer (Molecular Devices) with an integration time of one second per well. Data was normalized to 100% viability for cells receiving only DMSO without any concurrent compound.

| ΔTmDiff. [1] | IC50 [2] [µM] | ΔTm at 10 µM ([1]; 10 μM inhibitor) [°C] | Compound | Cell viability ([3]; 4 h, 1 μM) [%] | Cell viability ([3]; 4 h, 10 μM) [%] | Cell viability ([3]; 4 h, 100 μM) [%] | Cell viability ([3]; 24 h, 1 μM) [%] | Cell viability ([3]; 24 h, 10 μM) [%] | Cell viability ([3]; 24 h, 100 μM) [%] |
| --- | --- | --- | --- | --- | --- | --- | --- | --- | --- |
| 3.4 | 0.11 ± 0.05 |  | Nc1ncc(-c2ccc(N3CCNCC3)cc2)cc1-c1ccnc2ccccc12 [Compound 29] | 91 | 104 | 108 | 108 | 84 |  |
| −0.5 |  |  | CNc1ncc(-c2ccc(N3CCNCC3)cc2)cc1-c1cc(OC)c(OC)c(OC)c1 [Compound 24, N-methyl-5-(4-(piperazin-1-yl)phenyl)-3-(3,4,5-trimethoxyphenyl)pyridin-2-amine] | 95 | 105 | 86 | 101 | 86 |  |
| 4.2 | 0.17 ± 0.06 |  | Nc1ncc(-c2ccc(N3CCNCC3)cc2)cc1-c1cccc2ncccc12 [Compound 31, 5-(4-(piperazin-1-yl)phenyl)-3-(quinolin-5-yl)pyridin-2-amine] | 96 | 103 | 117 | 105 | 95 |  |
| 2.5 | 0.52 ± 0.06 |  | Nc1ncc(-c2cccc(N3CCNCC3)c2)cc1-c1ccnc2ccccc12 [Compound 30, 5-(3-(piperazin-1-yl)phenyl)-3-(quinolin-4-yl)pyridin-2-amine] | 92 | 104 |  | 104 | 92 | 5 |
| 1.0 |  |  | CC(C)Oc1cccc(-c2cc(-c3ccc(N4CCNCC4)cc3)cnc2N)c1 [Compound 21, 3-(3-isopropoxyphenyl)-5-(4-(piperazin-1-yl)phenyl)pyridin-2-amine] | 94 | 105 |  | 98 | 82 |  |
| 4.0 | 0.73 ± 0.1 |  | Nc1ncc(-c2ccc(N3CCNCC3)cc2)cc1-c1ccc2c(c1)OCCO2 [Compound 19, 3-(2,3-dihydrobenzo[b][1,4]dioxin-6-yl)-5-(4-(piperazin-1-yl)phenyl)pyridin-2-amine] | 100 | 102 | 91 | 103 | 95 |  |
| 4.5 |  |  | COc1ccc(-c2cc(-c3ccc(N4CCNCC4)cc3)cnc2N)cc1 [Compound 20, 3-(4-methoxyphenyl)-5-(4-(piperazin-1-yl)phenyl)pyridin-2-amine] | 106 | 102 |  | 108 | 104 |  |
| 3.5 | 0.04 ± 0.01 |  | COc1cc(OC)cc(-c2cc(-c3ccc(N4CCNCC4)cc3)cnc2N)c1 [Compound 17, 3-(3,5-dimethoxyphenyl)-5-(4-(piperazin-1-yl)phenyl)pyridin-2-amine] | 95 | 99 |  | 99 | 80 |  |
| 2.6 | 0.02 ± 0.002 |  | COc1cc(-c2cnn3cc(-c4ccc(N5CCNCC5)cc4)cnc23)cc(OC)c1OC [Compound 32, 3-(3,4,5-trimethoxyphenyl)-6-[4-(1-piperazinyl)phenyl]pyrazolo[1,5-a]pyrimidine] | 92 | 101 |  | 99 |  |  |
| 4.3 |  |  | COc1ccc(-c2cc(-c3ccc(N4CCNCC4)cc3)cnc2N)cc1OC [Compound 16, 3-(3,4-dimethoxyphenyl)-5-(4-(piperazin-1-yl)phenyl)pyridin-2-amine] |  |  |  |  |  |  |
| 3.8 |  |  | COc1cccc(-c2cc(-c3ccc(N4CCNCC4)cc3)cnc2N)c1 [Compound 18, 3-(3-methoxyphenyl)-5-(4-(piperazin-1-yl)phenyl)pyridin-2-amine] | 98 | 101 | 106 | 103 | 100 |  |
| 3.8 |  |  | COc1cc(-c2cc(-c3ccc(N4CCNCC4)cc3)cnc2N)ccc1C [Compound 23, 3-(3-methoxy-4-methylphenyl)-5-(4-(piperazin-1-yl)phenyl)pyridin-2-amine] | 95 | 101 |  | 98 | 86 |  |
| 4.7 |  |  | COc1cc(OC)cc(-c2cncc(-c3ccc(N4CCNCC4)cc3)c2)c1 [Compound 33, 1-(4-(5-(3,5-dimethoxyphenyl)pyridin-3-yl)phenyl)piperazine] | 95 | 100 |  | 101 | 92 |  |
| 0.8 |  |  | COc1cc(-c2cc(-c3cccc(N4CCNCC4)c3)cnc2N)cc(OC)c1OC [Compound 14, 5-(3-(piperazin-1-yl)phenyl)-3-(3,4,5-trimethoxyphenyl)pyridin-2-amine] | 96 | 110 | 99 | 99 | 93 |  |

The remaining lines, values behind:

| Compound | ΔTmDiff. [1] | IC50 [2] [µM] | ΔTm at 10 µM ([1]; 10 μM inhibitor) [°C] | Cell viability ([3]; 4 h, 1 μM) [%] | Cell viability ([3]; 4 h, 10 μM) [%] | Cell viability ([3]; 4 h, 100 μM) [%] | Cell viability ([3]; 24 h, 1 μM) [%] | Cell viability ([3]; 24 h, 10 μM) [%] | Cell viability ([3]; 24 h, 100 μM) [%] |
| --- | --- | --- | --- | --- | --- | --- | --- | --- | --- |
| COc1cc(-c2cc(-c3cccc(NS(C)(=O)=O)c3)cnc2N)cc(OC)c1OC [Compound 13, N-(3-(6-amino-5-(3,4,5-trimethoxyphenyl)pyridin-3-yl)phenyl)methanesulfonamide] | 0.9 | 0.06 ± 0.01 |  | 97 | 100 | 95 | 101 | 98 | 82 |
| COc1cc2ncnc(Nc3ccc(F)c(Cl)c3)c2cc1OCCCN1CCOCC1 [Gefitinib, reference compound] |  |  |  | 93 | 105 | 104 | 98 | 82 | 85 |
| Cc1cn(-c2cc(NC(=O)c3ccc(C)c(Nc4nccc(-c5cccnc5)n4)c3)cc(C(F)(F)F)c2)cn1 [Nilotinib, reference compound] |  |  |  | 99 | 106 | 105 | 100 | 101 | 91 |
| COc1cc(-c2cc(-c3cccc(O)c3)cnc2N)cc(OC)c1OC [Compound K02288, 3-(6-Amino-5-(3,4,5-trimethoxyphenyl)pyridin-3-yl)phenol, reference compound] | 2.0 | 0.42 ± 0.17 | 13.2 | 103 | 107 | 115 | 106 | 110 |  |
| CCN(CC)CCNC(=O)c1c(C)[nH]c(/C=C2\C(=O)Nc3ccc(F)cc32)c1C [Sunitinib, reference compound] |  |  |  | 97 | 107 |  | 96 |  |  |
| CS(=O)(=O)CCNCc1ccc(-c2ccc3ncnc(Nc4ccc(OCc5cccc(F)c5)c(Cl)c4)c3c2)o1 [Lapatinib, reference compound] |  |  |  | 100 | 104 | 104 | 98 | 92 | 89 |
| CCCS(=O)(=O)Nc1ccc(F)c(C(=O)c2c[nH]c3ncc(-c4ccc(Cl)cc4)cc23)c1F [Vemurafenib, reference compound] |  |  |  | 103 | 100 | 102 | 95 | 77 |  |
| N#CC[C@H](C1CCCC1)n1cc(-c2ncnc3[nH]ccc23)cn1 [Ruxolitinib, reference compound] |  |  |  | 101 | 105 | 88 | 100 | 90 |  |
| Cc1nc(Nc2ncc(C(=O)Nc3c(C)cccc3Cl)s2)cc(N2CCN(CCO)CC2)n1 [Dasatinib, reference compound] |  |  |  | 94 | 107 |  | 87 |  |  |
| C#Cc1cccc(Nc2ncnc3cc(OCCOC)c(OCCOC)cc23)c1 [Erlotinib, reference compound] |  |  |  | 96 | 107 | 108 | 99 | 84 | 84 |
